Measurements taken from PubChem BioAssay (NCI).
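Values below derive from 48-hour exposures of cells grown in 96-well plates, with endpoints linearly interpolated between the two concentrations bracketing the appropriate inhibition level. Definition used: TGI = concentration required for complete inhibition of growth.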

How the values were obtained:
Assay in all cases: inhibition of tumour cell growth, NCI panel, 48 h
A498 renal = system: A498 renal
A549 NSCLC = system: A549 NSCLC
COLO 205 colon = system: COLO 205 colon
HS 578T breast = system: HS 578T breast
LOX IMVI melanoma = system: LOX IMVI melanoma
MCF7 breast = system: MCF7 breast
MDA-MB-435 = system: MDA-MB-435
MOLT-4 leukemia = system: MOLT-4 leukemia
RXF 393 renal = system: RXF 393 renal
T-47D breast = system: T-47D breast
TK-10 renal = system: TK-10 renal
UO-31 renal = system: UO-31 renal

Row | Structure (SMILES) | TGI (A498 renal) [µM] | TGI (A549 NSCLC) [µM] | TGI (COLO 205 colon) [µM] | TGI (HS 578T breast) [µM] | TGI (LOX IMVI melanoma) [µM] | TGI (MCF7 breast) [µM] | TGI (MDA-MB-435) [µM] | TGI (MOLT-4 leukemia) [µM] | TGI (RXF 393 renal) [µM] | TGI (T-47D breast) [µM] | TGI (TK-10 renal) [µM] | TGI (UO-31 renal) [µM]
1 | O=c1c2cc(Br)ccc2oc2nc3n(c(=O)c12)CCCS3 | > 100 | > 100 | > 100 | > 100 | > 100 | > 100 | > 100 | > 100 | > 100 | > 100 | > 100 | > 100
2 | COc1ccc(-c2cc(-c3ccc(Nc4ccnc5cc(C(F)(F)F)ccc45)cc3)[nH]c(=O)c2C#N)c2ccccc12 | > 58.4 | > 100 | > 58.4 | > 100 | > 49.7 | > 100 | > 56.1 | > 100 | 46.1 | > 60.5 | > 90.7 | > 65.9
3 | CCOC(=O)CCC(NC(=O)c1ccc(CNc2nc3cc(N)cc(N)c3nc2-c2ccccc2)cc1)C(=O)OCC (stereo not given) | > 100 | > 100 | > 100 | > 100 | > 100 | > 100 | > 86.4 | 9.43 | > 100 | 49.1 | > 100 | > 100
4 | COC(=O)C1OC(O[C@H]2CC[C@]3(C)[C@H]4CC=C5[C@@H]6CC(C)(C)CC[C@]6(C(=O)OC)[C@H](O)C[C@@]5(C)[C@]4(C)CC[C@H]3C2(C)C)C(O)C(O)C1O (stereo not given in full) | 26.1 | 17.4 | 17.5 | 34.1 | 17.1 | 23.5 | 27.7 | 25.2 | 18.1 | 28.6 |  | 26.9
5 | COC(=O)c1ccc2n1C1CC3CC(CC2C3)C1 | > 100 | > 100 | > 100 | > 100 | > 100 | > 100 | > 100 | > 100 | 96.6 | > 100 | > 100 | > 100
6 | N=c1c2c3n(c4c(=O)n(-c5ccccc5)c(=S)n(c(=O)n1-c1ccccc1)c24)CCCCC3 | > 100 | > 100 | > 100 | > 100 | > 100 | > 100 | > 100 | > 71.6 | > 100 | > 100 | > 100 | > 100
7 | COC1=CC(=O)C(O)=C(C[C@@]2(C)[C@@H]3CCC[C@H](COC(=O)CCCCCNC(=O)OC(C)(C)C)[C@@]3(C)CC[C@@H]2C)C1=O | > 10 | > 10 | > 10 | > 10 | > 10 | > 10 | > 10 | > 10 | > 10 | > 10 | > 10 | > 10
8 | Oc1ccc2c(c1)OCC(O)(c1ccccc1O)C2 (stereo not given) | > 100 |  | > 100 | > 100 | > 100 | > 100 | > 100 | > 100 | > 100 | > 100 | > 100 | > 100
9 | CC(SC(=S)N1CCCCC1)C(=O)Nc1nnc(-c2ccc(Cl)cc2)o1 (stereo not given) | 88.6 | > 100 | > 100 | > 100 | > 100 | 76.1 | > 100 |  | > 100 | > 100 | > 100 | 54
10 | CCCCCCOc1ccc(NC2=C(Cl)C(=O)c3cccnc3C2=O)cc1 | > 10 | 4.25 |  | > 10 | 2.81 | 2.65 | 3.62 | > 10 | 2.77 | 3.78 | 9.49 | 2.47
11 | CC1=C/C(=N/N2C(=O)/C(=C/c3ccc(Cl)cc3)N=C2c2ccccc2)CC(C)(C)C1 | > 100 | > 100 | > 100 | > 100 | > 100 | > 100 | > 100 | > 100 | > 100 | > 100 | > 100 | > 100
12 | N[C@@H]1c2c(Br)sc(Br)c2[C@H](O)[C@@H]1O | > 100 | > 100 | > 100 | > 100 | > 100 | > 100 | > 100 | > 100 | > 100 | > 100 | > 100 | > 100
13 | NC1CC2C3CCC2C1C3=O (stereo not given) | > 100 | > 100 | > 100 | > 100 | > 100 | > 100 | > 100 | > 100 | > 100 | > 100 | > 100 | > 100
14 | Oc1ccc(-c2nc3cc(C(F)(F)F)ccc3n2CC2CCCN3CCCCC23)cc1 (stereo not given) | 29.3 |  |  | 31.5 | 28.8 | 25.2 | 26.3 | 33.5 | 34.5 | 47.6 | 30.5 | 25.1
15 | CCCCCCCCCCCCCCCCCCNc1ccn(C2OC(COP(=O)(O)O)C(O)C2O)c(=O)n1 (stereo not given) | > 100 | > 100 | > 100 | > 100 | > 100 | > 100 | > 100 | > 100 | > 100 | > 100 | > 100 | > 100
16 | COC(=O)C1=NN2c3ccccc3C(=O)OCCC2C1 (stereo not given) | > 100 | > 100 | > 100 | > 100 | > 100 | > 100 | > 100 | > 100 | > 100 | > 100 | > 100 | > 100
17 | O=[N+]([O-])c1ccc(Cl)cc1C1ON=C(c2ccccc2)N1C12CC3CC(CC(C3)C1)C2 (stereo not given) | > 100 | > 100 | > 100 | > 100 | > 100 | > 100 | > 100 | > 100 | > 100 | > 100 | > 100 | > 100
18 | Cc1cc(C)c2c(n1)S(=O)(=O)N(CCCN1CCN(c3cccc(C(F)(F)F)c3)CC1)/C(=C(\O)c1ccccc1)C2=O | > 100 | > 100 | 14.7 | > 100 | 11.3 | 56.7 | 82.8 | 10.8 | 20.9 | > 100 | > 100 | 52.7
